The source of these data is patent publication US20240124434A1, “ATF6 INHIBITORS AND USES THEREOF” (Altos Labs, Inc., priority 2018, published 2024).

For data set [1] the following is noted: mouse, in vivo, po, 10 mg/kg.
For the next data set, the system named is ATF6. In words: ERSE ATF6-luciferase reporter assay (thapsigargin-induced ER stress). It counts as cell-based, human. The conditions noted are these: for inhibition at 1 µM: 8 hr. For orientation: Reporter assays use an easily measured gene product as a stand-in for the process of interest.
The next data set deals with CYP2B6 (Homo sapiens (Human), UniProt P20813). Description: CYP inhibition in human liver microsomes. The procedure:
(§1) CYP inhibition by test compounds in human liver microsomes (HLM) for seven major CYP450 isoforms CYP1A2, CYP2C9, CYP2D6, CYP2B6, CYP2C8, CYP2C19 and CYP3A4 were assessed. […] 50 μM phenacetin, 2 μM midazolam, 5 μM diclofenac, 50 μM mephenytoin, 80 μM bupropion, and 5 μM dextromethorphan were used as probe substrates of CYP1A2, CYP3A4, CYP2C9, CYP2C19, CYP2B6, and CYP2D6, respectively. The incubation times were 20 min for […], CYP2D6, CYP2C9, CYP2B6, and CYP2C8; 40 min for CYP2C19; and 10 min for CYP 3A4. Following incubations, the reactions were terminated with acetonitrile containing internal standard. The samples were centrifuged and the supernatants were analyzed for the formation of metabolites (1-hydroxymidazolam (CYP3A4), 4-hydroxydiclofenac (CYP2C9), 4-hydroxymephenytoin (CYP2C19) and dextrorphan (CYP2D6), hydroxybupropion (CYP2B6), acetaminophen (CYP1A2), desethylamodiaquine (CYP2C8)) by LC/MS/MS.

Another data set addresses CYP2C19 (Homo sapiens (Human), UniProt P33261). In words: CYP inhibition in human liver microsomes. As to the method: as §1
A general note: Microsomes from liver hold many membrane-bound enzymes, among them those of drug oxidation.

The target of the next data set is CYP2D6 (Homo sapiens (Human), UniProt P10635). In words: CYP inhibition in human liver microsomes. As to the method: as §1
A further data set concerns the target CYP2C9 (Homo sapiens (Human), UniProt P11712). Description: CYP inhibition in human liver microsomes. The procedure: as §1
A further data set deals with CYP1A2 (Homo sapiens (Human), UniProt P05177). Description: CYP inhibition in human liver microsomes. The procedure:
as §1

The next data set deals with CYP3A4 (Homo sapiens (Human), UniProt P08684). In words: CYP inhibition in human liver microsomes. As to the method: as §1
Data set [2] can be described thus: In vitro microsomal stability, human liver microsomes. To be noted: for Rem. @ hLM (%): remaining fraction after 30 min, 1 μM compound, 0.5 mg/mL human liver microsomes, 1 mM NADPH. It counts as in vitro ADME. The method in brief:
(§2)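 1 μM compound was incubated at 37 °C with 0.5 mg/mL human, mouse or rat liver microsomes and 1 mM NADPH in 100 mM phosphate buffer pH 7.4. Reactions were stopped at 0, 5, 15 and 30 min with cold acetonitrile containing propranolol internal standard.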

The next data set is described as follows: in vivo. To be noted: Balb/c, mouse, po, 10 mg/kg.
The nature of data set [3]: In vitro microsomal stability, rat liver microsomes. It counts as in vitro ADME. To be noted: for half-life at 1 μM / half-life at […], 1 µM: rat, read-out: T1/2 @ rLM; for Rem. @ rLM (%): remaining fraction after 30 min, 1 μM compound, 0.5 mg/mL rat liver microsomes, 1 mM NADPH. Summed up:
as §2

Data set [4] in a line: In vitro microsomal stability, mouse liver microsomes. It counts as in vitro ADME. To be noted: for Rem. @ mLM (%): remaining fraction after 30 min, 1 μM compound, 0.5 mg/mL mouse liver microsomes, 1 mM NADPH. Summed up:
as §2

Data set [5] is described as follows: Kinetic solubility (nephelometry). It counts as physicochemical. The conditions noted are these: aqueous buffer, kinetic from dmso stock; PBS pH 7.4, 1% DMSO, 1 hour at 37° C., light scattering at 625 nm. As to the method:
Concentration (μM) was then calculated by segmental regression. Amiodarone (#A8423 Aldrich) was used as positive control.

For another data set, the target named is CYP2C8 (Homo sapiens (Human), UniProt P10632). Description: CYP inhibition in human liver microsomes. To be noted: read-out: CYP-2C8, metabolite desethylamodiaquine. As to the method: as §1
[6] abbreviates: human, human liver microsomes, pH 7.4, read-out: T1/2 @ hLM.
The mark [7] stands for this setting: pH 7.4, intrinsic clearance, human liver microsomes, read-out: Clint @ hLM.
The mark [8] stands for this setting: pH 7.4, intrinsic clearance, rat liver microsomes, read-out: Clint @ rLM.
[9] abbreviates: mouse, mouse liver microsomes, pH 7.4, read-out: T1/2 @ mLM.
Setting [10] is: pH 7.4, intrinsic clearance, mouse liver microsomes, read-out: Clint @ mLM.
Setting [11] is: Homo sapiens, U2OS, dose-response 30 μM to 1 nM, thapsigargin-induced ER stress, U2-OS ATF6 luc reporter cells, read-out: IC50 ATF6-Luc reporter.
[12] abbreviates: Homo sapiens, U2OS, 1 μM test compound, thapsigargin-induced ER stress, U2-OS ATF6 luc reporter cells, read-out: Inh. ATF6-Luc @ 1 μM [%].
[13] abbreviates: read-out: CYP-2B6, human liver microsomes, probe substrate bupropion.
[14] abbreviates: read-out: CYP-2C19, human liver microsomes, probe substrate mephenytoin.
The mark [15] stands for this setting: read-out: CYP-2D6, human liver microsomes, probe substrate dextromethorphan.
[16] abbreviates: read-out: CYP-2C9, human liver microsomes, probe substrate diclofenac.
The mark [17] stands for this setting: read-out: CYP-1A2, human liver microsomes, probe substrate phenacetin.
Where [18] appears, read: read-out: CYP-3A4, human liver microsomes, probe substrate midazolam.

Converted amounts (≈) assume the structure as drawn. Like-named read-outs stand apart in the source and are kept apart here. Where only a bound is given, the exact number is not on record here.

CYP2B6, sequence (P20813 whole entry, canonical isoform): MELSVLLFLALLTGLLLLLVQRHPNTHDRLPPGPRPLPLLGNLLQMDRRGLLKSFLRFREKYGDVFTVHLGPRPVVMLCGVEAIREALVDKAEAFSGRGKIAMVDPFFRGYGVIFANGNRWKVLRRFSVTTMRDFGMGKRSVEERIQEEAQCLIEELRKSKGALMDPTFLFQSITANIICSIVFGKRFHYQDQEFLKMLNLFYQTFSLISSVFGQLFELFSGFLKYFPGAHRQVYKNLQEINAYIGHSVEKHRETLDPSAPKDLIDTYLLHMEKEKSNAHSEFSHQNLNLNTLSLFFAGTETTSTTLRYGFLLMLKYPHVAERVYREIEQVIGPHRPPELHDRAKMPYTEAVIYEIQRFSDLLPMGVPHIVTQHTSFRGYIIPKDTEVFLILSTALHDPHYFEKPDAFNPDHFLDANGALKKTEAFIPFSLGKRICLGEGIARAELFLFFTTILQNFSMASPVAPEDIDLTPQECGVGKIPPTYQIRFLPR
CYP2C9, sequence (P11712 whole entry): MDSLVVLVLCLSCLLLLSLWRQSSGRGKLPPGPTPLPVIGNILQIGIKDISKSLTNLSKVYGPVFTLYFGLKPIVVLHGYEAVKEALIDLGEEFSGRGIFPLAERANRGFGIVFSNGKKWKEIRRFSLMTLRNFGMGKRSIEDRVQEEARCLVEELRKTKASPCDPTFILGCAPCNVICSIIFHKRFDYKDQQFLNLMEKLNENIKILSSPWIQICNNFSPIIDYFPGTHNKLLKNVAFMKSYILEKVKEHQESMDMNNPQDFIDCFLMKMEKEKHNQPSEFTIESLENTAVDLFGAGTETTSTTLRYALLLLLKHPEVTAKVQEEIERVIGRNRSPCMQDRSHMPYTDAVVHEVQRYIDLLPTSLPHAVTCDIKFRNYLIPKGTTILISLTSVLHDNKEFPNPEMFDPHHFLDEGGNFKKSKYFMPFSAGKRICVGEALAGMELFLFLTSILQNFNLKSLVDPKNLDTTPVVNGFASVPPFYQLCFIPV
CYP2C8, sequence (P10632 whole entry): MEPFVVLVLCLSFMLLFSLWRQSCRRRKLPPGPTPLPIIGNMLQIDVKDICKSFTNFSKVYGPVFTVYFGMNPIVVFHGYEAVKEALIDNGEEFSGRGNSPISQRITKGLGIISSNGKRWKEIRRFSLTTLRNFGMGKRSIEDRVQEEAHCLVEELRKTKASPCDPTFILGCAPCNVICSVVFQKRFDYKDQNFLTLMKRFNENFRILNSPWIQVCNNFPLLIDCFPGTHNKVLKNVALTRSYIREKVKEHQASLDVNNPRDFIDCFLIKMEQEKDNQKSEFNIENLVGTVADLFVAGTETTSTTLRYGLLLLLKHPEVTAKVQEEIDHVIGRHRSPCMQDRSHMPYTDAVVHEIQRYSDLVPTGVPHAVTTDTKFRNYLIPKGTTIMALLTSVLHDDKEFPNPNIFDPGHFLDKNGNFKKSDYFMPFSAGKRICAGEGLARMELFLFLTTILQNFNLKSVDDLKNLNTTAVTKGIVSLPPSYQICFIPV
CYP3A4, sequence (P08684 whole entry): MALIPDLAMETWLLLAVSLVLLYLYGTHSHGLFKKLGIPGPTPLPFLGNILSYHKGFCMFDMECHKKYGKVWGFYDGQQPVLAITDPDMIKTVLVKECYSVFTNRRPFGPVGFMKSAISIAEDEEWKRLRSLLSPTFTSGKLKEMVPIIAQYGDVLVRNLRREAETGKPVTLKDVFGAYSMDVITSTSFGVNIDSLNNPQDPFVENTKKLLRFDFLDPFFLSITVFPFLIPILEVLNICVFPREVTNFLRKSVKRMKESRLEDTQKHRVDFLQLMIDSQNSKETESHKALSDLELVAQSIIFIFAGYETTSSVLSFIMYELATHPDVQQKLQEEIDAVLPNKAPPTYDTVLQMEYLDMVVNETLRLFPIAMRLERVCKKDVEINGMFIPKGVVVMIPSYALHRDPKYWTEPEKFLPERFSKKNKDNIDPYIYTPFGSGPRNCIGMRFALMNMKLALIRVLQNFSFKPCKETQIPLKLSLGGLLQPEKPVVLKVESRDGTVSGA
CYP1A2, sequence (P05177 whole entry): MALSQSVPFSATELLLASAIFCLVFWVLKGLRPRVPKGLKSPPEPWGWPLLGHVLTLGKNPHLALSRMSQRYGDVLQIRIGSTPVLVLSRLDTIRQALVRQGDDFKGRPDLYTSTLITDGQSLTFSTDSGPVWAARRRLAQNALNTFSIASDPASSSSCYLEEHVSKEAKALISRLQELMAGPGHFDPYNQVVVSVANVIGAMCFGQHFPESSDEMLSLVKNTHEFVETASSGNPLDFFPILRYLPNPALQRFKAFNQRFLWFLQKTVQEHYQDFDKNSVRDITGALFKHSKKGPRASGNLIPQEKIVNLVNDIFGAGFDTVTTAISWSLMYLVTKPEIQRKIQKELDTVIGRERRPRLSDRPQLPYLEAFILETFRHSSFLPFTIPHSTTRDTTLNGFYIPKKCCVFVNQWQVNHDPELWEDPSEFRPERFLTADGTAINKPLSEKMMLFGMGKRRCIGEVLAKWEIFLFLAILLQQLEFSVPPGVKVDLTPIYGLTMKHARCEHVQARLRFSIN
CYP2C19, sequence (P33261 whole entry): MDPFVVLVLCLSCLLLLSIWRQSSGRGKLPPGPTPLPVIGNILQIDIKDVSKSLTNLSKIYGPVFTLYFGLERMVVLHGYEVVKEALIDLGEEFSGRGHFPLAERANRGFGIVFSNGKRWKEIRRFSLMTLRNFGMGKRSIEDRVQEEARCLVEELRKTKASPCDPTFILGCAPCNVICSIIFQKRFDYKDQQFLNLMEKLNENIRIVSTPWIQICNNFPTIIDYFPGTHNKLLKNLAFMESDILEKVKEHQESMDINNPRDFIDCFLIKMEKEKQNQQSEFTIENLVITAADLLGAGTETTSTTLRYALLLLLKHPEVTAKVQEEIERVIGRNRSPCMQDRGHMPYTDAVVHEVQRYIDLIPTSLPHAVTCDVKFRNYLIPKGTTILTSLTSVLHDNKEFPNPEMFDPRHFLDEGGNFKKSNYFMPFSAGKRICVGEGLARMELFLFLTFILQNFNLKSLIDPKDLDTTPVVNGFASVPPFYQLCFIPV
CYP2D6, sequence (P10635 whole entry): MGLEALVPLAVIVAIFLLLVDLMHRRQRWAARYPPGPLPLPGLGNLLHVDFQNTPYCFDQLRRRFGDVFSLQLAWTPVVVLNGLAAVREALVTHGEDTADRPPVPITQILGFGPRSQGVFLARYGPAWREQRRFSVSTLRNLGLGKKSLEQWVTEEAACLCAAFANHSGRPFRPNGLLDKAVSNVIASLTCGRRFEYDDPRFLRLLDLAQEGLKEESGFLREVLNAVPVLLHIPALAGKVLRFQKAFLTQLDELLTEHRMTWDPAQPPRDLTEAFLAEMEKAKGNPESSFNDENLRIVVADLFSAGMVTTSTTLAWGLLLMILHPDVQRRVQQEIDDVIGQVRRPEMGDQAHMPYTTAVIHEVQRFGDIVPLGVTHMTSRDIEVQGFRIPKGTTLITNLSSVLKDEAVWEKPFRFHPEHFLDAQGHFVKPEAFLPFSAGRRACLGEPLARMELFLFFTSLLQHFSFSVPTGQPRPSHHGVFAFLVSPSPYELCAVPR

By AUC(0-inf) is commonly meant the area under the concentration-time curve extrapolated to infinity. One may read the AUC(0-t) as the area under the concentration-time curve up to a stated or last time point. Higher therefore signals more exposure. Usually Cmax stands for the peak of the concentration-time curve. As a reminder, the Tmax is the time from dosing to the highest level. For orientation: kinetic solubility means the concentration staying in solution when a stock, usually in DMSO, is diluted into the medium. On to `CC(c1ccc(C(F)(F)F)cc1C(F)(F)F)n1cc(NC(=O)c2cc(-c3ccco3)on2)cn1` (single isomer, unassigned) [“Enantiomer A” of Example S6, N-(1-(1-(2,4-bis(trifluoromethyl)phenyl)ethyl)-1H-pyrazol-4-yl)-5-(furan-2-yl)isoxazole-3-carboxamide], for which the “AUCExtr [%]” value in [1] (Balb/c) was found to be 1.73%. The “F [%]” value in data set [1] (Balb/c) was 9.6%. In addition, the “Last time point for AUClast” value in [1] was 8 h. Besides, the IC50 in the data set on ATF6 was below 1 µM; at CYP2B6 it was 4.18 µM; at CYP2C19 it was 3.54 µM; against CYP2D6, 23.7 µM; against CYP2C9 it was 7.88 µM; against CYP1A2, 15.3 µM. On CYP3A4, this molecule showed an IC50 above 50 µM. In the data set with ATF6 (8 h, 1 µM), the “Inh. ATF6-Luc @ 1 μM [%]” value is listed as “+++ (+++ refers to >50% inhibition at 1 μM test compound)”. The half-life at 1 μM in data set [2] (setting [6]) was 0.4 h; in [3] (rat liver microsomes, pH 7.4) it was 0.0815 h; in data set [4] (setting [9]), 5.97 min. Also, the figures for the microsomal CLint at 1 μM in data set [2] (setting [7]), in [3] (setting [8]) and in [4] (setting [10]) were 57.8 µL/min/mg, 283 µL/min/mg and 232 µL/min/mg, respectively. Moreover, the “Rem. @ hLM (%)” value in data set [2] is given as 41.8%. This molecule also had an AUC(0-inf) in the data set “in vivo” of 626 ng·h/mL. For the same molecule, in “in vivo”, the AUC(0-t) stood at 615 ng·h/mL. The Cmax in “in vivo” is 579 ng/mL. Also, the Tmax in the data set “in vivo” stood at 0.5 h. In the data set “in vivo”, this molecule showed a half-life of 1.6 h. In addition, the “Rem. @ rLM (%)” value in data set [3] came to 1.4%. Also, the “Rem. @ mLM (%)” value in data set [4] was 3.05%. This molecule yielded a solubility (kinetic) at 1 h in data set [5] of 27 µM (≈ 13.1 µg/mL).
In the case of `CC(c1ccc(C(F)(F)F)cc1C(F)(F)F)n1cc(NC(=O)c2nnc(-c3cnccn3)s2)cn1` (stereo not drawn) [Compound 136, N-(1-(1-(2,4-bis(trifluoromethyl)phenyl)ethyl)-1H-pyrazol-4-yl)-5-(pyrazin-2-yl)-1,3,4-thiadiazole-2-carboxamide], the IC50 was below 1 µM with ATF6 (setting [11]); above 50 µM on CYP2B6 (setting [13]); above 50 µM on CYP2C8; above 50 µM on CYP2C19 (setting [14]); above 50 µM on CYP2D6 (setting [15]); above 50 µM at CYP2C9 (setting [16]). The IC50 on CYP1A2 (setting [17]) and on CYP3A4 (setting [18]) was above 50 µM throughout. For the same molecule, in the data set with ATF6 (setting [12]), the inhibition at 1 µM was above 50%. Further, the half-life at […], 1 µM in data set [2] (setting [6]) was determined as 1.57 h; in data set [4] (setting [9]) it was 1.77 h. Further, the microsomal CLint at […], 1 µM in [2] (setting [7]) stood at 15 µL/min/mg; in [3] (setting [8]) it was 44 µL/min/mg; in data set [4] (setting [10]) it was 13 µL/min/mg. Also, the “Rem. @ hLM (%)” value in data set [2] came to 77.8%. Also, the half-life at 1 μM in [3] (rat liver microsomes, pH 7.4) was 0.528 h. For the same molecule, in [3], the “Rem. @ rLM (%)” value was 43.9%. Also, the “Rem. @ mLM (%)” value in [4] was found to be 78.7%. The molecule further gave a solubility (kinetic) at 1 h in [5] of 2.34 µM (≈ 1.2 µg/mL).
Regarding `C[C@H](c1ccc(C(F)(F)F)cc1C(F)(F)F)n1cc(NC(=O)c2nnc(-c3ccccn3)s2)cn1` [Compound 123, (R)—N-(1-(1-(2,4-bis(trifluoromethyl)phenyl)ethyl)-1H-pyrazol-4-yl)-5-(pyridin-2-yl)-1,3,4-thiadiazole-2-carboxamide], the “AUCExtr [%]” value in data set [1] (Balb/c) was 37.7%. Further, in data set [1] (Balb/c), the “F [%]” value is given as 64.1%. Moreover, in [1] (Balb/c), the “Vz” value came out at 4.43 L/kg. For the same molecule, the “Last time point for AUClast” value in [1] amounted to 24 h. For the same molecule, in the data set on ATF6 (Homo sapiens, U2OS, 8 h, read-out: Inh. ATF6-Luc @ 1 μM [%], 1 μM test compound, thapsigargin-induced ER stress, U2-OS ATF6 luc reporter cells), the inhibition at 1 µM was above 50%. Moreover, the IC50 with ATF6 (Homo sapiens, U2OS, read-out: IC50 ATF6-Luc reporter [μM], dose-response 30 μM to 1 nM, thapsigargin-induced ER stress, U2-OS ATF6 luc reporter cells) is below 1 µM; on CYP2B6 (setting [13]) it was 42.9 µM; at CYP2C8, 33.3 µM; on CYP2C19 (setting [14]) it was above 50 µM; at CYP2D6 (setting [15]) it was above 50 µM; at CYP2C9 (setting [16]), 31.9 µM. The IC50 on CYP3A4 (setting [18]) was above 50 µM. The half-life at […], 1 µM in [2] (setting [6]) worked out at 7.67 h; in data set [3] (rat liver microsomes, pH 7.4), 2.17 h; in data set [4] (setting [9]), 3.22 h. The microsomal CLint at […], 1 µM in [2] (setting [7]) stood at 3 µL/min/mg; in [3] (setting [8]), 10.7 µL/min/mg; in data set [4] (setting [10]), 7.2 µL/min/mg. Besides, the “Rem. @ hLM (%)” value in [2] was 95.5%. This molecule had an AUC(0-inf) in “in vivo” of 62200 ng·h/mL. In “in vivo”, this molecule gave an AUC(0-t) of 38800 ng·h/mL. The peak level in “in vivo” (Cmax) was 4560 ng/mL. Besides, the Tmax in “in vivo” worked out at 1 h. The molecule also showed a half-life in “in vivo” of 19.1 h. Moreover, the “Rem. @ rLM (%)” value in [3] came to 81.5%. Moreover, the “Rem. @ mLM (%)” value in data set [4] is reported as 89.7%. This molecule had a kinetic solubility at 1 h in data set [5] of 1.17 µM (≈ 0.6 µg/mL).
Take `CC(c1ccc(C(F)(F)F)cc1C(F)(F)F)n1cc(NC(=O)c2cnc(-c3ccccn3)s2)cn1` (stereo not drawn) [Compound 78, N-(1-(1-(2,4-bis(trifluoromethyl)phenyl)ethyl)-1H-pyrazol-4-yl)-2-(pyridin-2-yl)thiazole-5-carboxamide]: the IC50 in the data set with ATF6 (setting [11]) was 1 to 10 µM; on CYP2B6 (setting [13]), 4.97 µM; on CYP2C8, 1.8 µM; at CYP2C19 (setting [14]) it was 5.27 µM; at CYP2D6 (setting [15]) it was 2.78 µM; on CYP2C9 (setting [16]), 5.48 µM. In addition, the IC50 is 22.4 µM at CYP1A2 (setting [17]) and above 50 µM at CYP3A4 (setting [18]). The inhibition at 1 µM in the data set with ATF6 (setting [12]) is below 25%. Moreover, the half-life at […], 1 µM in data set [2] (setting [6]) turned out to be 1.59 h; in data set [3] (rat liver microsomes, pH 7.4), 1.04 h; in data set [4] (setting [9]), 1.31 h. Moreover, the microsomal CLint at […], 1 µM was determined as 14.5 µL/min/mg in [2] (setting [7]), 22.3 µL/min/mg in data set [3] (setting [8]) and 17.6 µL/min/mg in [4] (setting [10]). Besides, the “Rem. @ hLM (%)” value in data set [2] came to 80.4%. The “Rem. @ rLM (%)” value in data set [3] amounted to 71.6%. For the same molecule, the “Rem. @ mLM (%)” value in data set [4] is 76.8%.
